We go through eleven molecules from ChEMBL document CHEMBL5728097, “Amino pyrazolopyrimidine compound used as neurotrophic factor tyrosine kinase receptor inhibitor” (2020).

For the assay, the target named is High affinity nerve growth factor receptor (Homo sapiens, UniProt P04629). The assay can be described thus: Inhibitory Activity Assay: TrkA, TrkB and TrkC:A testing platform for TrkA, TrkB and TrkC kinase activity was established based on Homogeneous Time-Resolved Fluorescence (HTRF) assay, and the activities of the compounds were tested using the platform. The compounds were subjected to three-fold gradient dilution with 100% DMSO with a starting concentration of 1 mM (11 concentrations in total). 4 μL of diluted sample for each concentration was added to 96 μL of reaction buffer (50 mM HEPES, pH7.4, 5 mM MgCl2, 1 mM NaVO3, 0.001% Tween-20, 0.01% BSA and 1 mM DTT) and mixed homogeneously to be used as a 4* compound. The reaction buffer was used to formulate 2* TrkA, TrkB and TrkC kinases (purchased from Carna Biosciences 08-186, 08-187, 08-197, and the final concentrations thereof were 0.5 nM, 0.1 nM, and 1 nM, respectively) and 4* substrate mixture (ATP+TK peptide) (wherein the final concentrations of ATP were 40 μM, 50 μM, and 20 μM, respectively; TK peptide, HTRF® KinEASE™-TK, was purchased from Cisbio, and the final concentration thereof was 100 nM) for use. 2.5 μL of the 4* compound was added to a 384-well plate (OptiPlate-384, purchased from PerkinElmer), and then 5 μL of the 2* TrkA, TrkB and TrkC kinases were added, and mixed homogeneously by centrifugation. Then 2.5 μL of the 4* substrate mixture was added to initiate the reaction (the total reaction volume is 10 μL). The 384-well plate was placed in an incubator and incubated for 60 min at 23° C. Then the reaction was terminated by adding 5 μL of Eu3+ cryptate-labeled anti-phosphotyrosine antibody (HTRF® KinEASE™-TK, purchased from Cisbio), and 5 μL of Streptavidin-XL-665 (HTRF® KinEASE™-TK, purchased from Cisbio). After incubated for 1 hr in the incubator, the fluorescence values were read on Envision (purchased from PerkinElmer). On the technique in general: Time-resolved FRET reads energy transfer from a long-lived donor to a nearby acceptor.
High affinity nerve growth factor receptor, sequence (P04629 whole entry): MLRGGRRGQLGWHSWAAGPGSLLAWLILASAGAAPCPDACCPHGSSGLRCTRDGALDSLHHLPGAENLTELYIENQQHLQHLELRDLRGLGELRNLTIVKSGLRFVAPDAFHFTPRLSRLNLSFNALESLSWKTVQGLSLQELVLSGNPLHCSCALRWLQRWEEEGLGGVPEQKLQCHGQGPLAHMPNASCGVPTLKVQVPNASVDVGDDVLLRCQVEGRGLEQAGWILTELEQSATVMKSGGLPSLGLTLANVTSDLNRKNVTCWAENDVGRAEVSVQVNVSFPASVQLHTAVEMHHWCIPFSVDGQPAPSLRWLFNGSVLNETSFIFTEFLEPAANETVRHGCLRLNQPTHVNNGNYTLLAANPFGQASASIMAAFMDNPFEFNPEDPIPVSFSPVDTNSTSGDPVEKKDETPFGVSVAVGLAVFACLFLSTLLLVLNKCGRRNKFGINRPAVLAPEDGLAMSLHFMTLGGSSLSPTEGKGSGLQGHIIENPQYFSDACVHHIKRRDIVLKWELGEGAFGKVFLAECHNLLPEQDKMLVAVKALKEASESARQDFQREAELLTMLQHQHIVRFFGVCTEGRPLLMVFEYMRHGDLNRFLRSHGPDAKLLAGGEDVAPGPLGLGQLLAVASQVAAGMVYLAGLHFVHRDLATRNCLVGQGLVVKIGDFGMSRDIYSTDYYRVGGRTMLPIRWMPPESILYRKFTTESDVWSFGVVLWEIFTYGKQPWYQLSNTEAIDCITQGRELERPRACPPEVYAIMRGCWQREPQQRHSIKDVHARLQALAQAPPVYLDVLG
A word on the IC50: it is the point on the concentration scale where inhibition reaches its midpoint. `CC(C)(C)ONC(=O)c1c(N)nn2ccc(N3CCC[C@@H]3c3cc(F)ccc3F)nc12`: the half-maximal inhibitory concentration (IC50) was < 1 nM. In the case of `N#Cc1c(N)nn2ccc(N3C[C@@H](F)C[C@@H]3c3cc(F)ccc3F)nc12`, the concentration for half-maximal inhibition (IC50) was < 1 nM. The figure for `Nc1nn2ccc(N3CCC[C@@H]3c3cc(F)ccc3F)nc2c1Br` is < 25 nM; for `CCOC(=O)c1c(N)nn2ccc(N3C[C@H](O)CC3c3cc(F)ccc3F)nc12` (stereo partly specified) it is < 25 nM. In the case of `CC1(C)OCC(CONC(=O)c2c(N)nn3ccc(N4CCC[C@@H]4c4cc(F)ccc4F)nc23)O1` (stereo partly specified), the half-inhibitory concentration (IC50) is < 1 nM. The figure for `CCOC(=O)c1c(N)nn2ccc(N3C[C@@H](O)CC3c3cc(F)ccc3F)nc12` (stereo partly specified) is < 500 nM; for `Nc1nn2ccc(N3CCC[C@@H]3c3cc(F)ccc3F)nc2c1C(=O)NOCCO` it is < 1 nM. With `NC(=O)c1c(N)nn2ccc(N3C[C@@H](O)C[C@@H]3c3cc(F)ccc3F)nc12`, the IC50 is < 25 nM.

Regarding `CC(C)(CO)ONC(=O)c1c(N)nn2ccc(N3CCC[C@@H]3c3cc(F)ccc3F)nc12`, the 50% inhibitory concentration (IC50) was < 1 nM. The figure for `Nc1nn2ccc(N3CCC[C@@H]3c3cc(F)ccc3F)nc2c1C(=O)NC1CCC(O)CC1` (stereo partly specified) is < 1 nM; for `CN(C)C(=O)c1c(N)nn2ccc(N3CCC[C@@H]3c3cc(F)ccc3F)nc12` it is < 25 nM.
